Key:
Assay type in all cases: functional
[1] = test system: A549; experiment: Growth inhibition of Homo sapiens (human) A549 cells at 10^-8 mol/l after 72 hr by MTT assay; conditions: A549, 72 h, read-out: GI
[2] = test system: A549; experiment: Growth inhibition of Homo sapiens (human) A549 cells at 10^-6 mol/l after 72 hr by MTT assay; conditions: A549, 72 h, read-out: GI
[3] = test system: P388; experiment: Growth inhibition of Mus musculus (mouse) P388 cells at 10^-4 mol/l after 72 hr by MTT assay; conditions: P388, 72 h, read-out: GI
[4] = test system: A549; experiment: Growth inhibition of Homo sapiens (human) A549 cells at 10^-7 mol/l after 72 hr by MTT assay; conditions: A549, 72 h, read-out: GI
[5] = test system: P388; experiment: Growth inhibition of Mus musculus (mouse) P388 cells at 10^-8 mol/l after 72 hr by MTT assay; conditions: P388, 72 h, read-out: GI
[6] = test system: A549; experiment: Growth inhibition of Homo sapiens (human) A549 cells at 10^-4 mol/l after 72 hr by MTT assay; conditions: A549, 72 h, read-out: GI
[7] = test system: A549; experiment: Growth inhibition of Homo sapiens (human) A549 cells at 10^-5 mol/l after 72 hr by MTT assay; conditions: A549, 72 h, read-out: GI
[8] = test system: P388; experiment: Growth inhibition of Mus musculus (mouse) P388 cells at 10^-5 mol/l after 72 hr by MTT assay; conditions: P388, 72 h, read-out: GI
[9] = test system: P388; experiment: Growth inhibition of Mus musculus (mouse) P388 cells at 10^-6 mol/l after 72 hr by MTT assay; conditions: P388, 72 h, read-out: GI
[10] = test system: P388; experiment: Growth inhibition of Mus musculus (mouse) P388 cells at 10^-7 mol/l after 72 hr by MTT assay; conditions: P388, 72 h, read-out: GI

Row | Structure (SMILES) | inhibition of growth at 0.01 µM [1] | inhibition of growth at 1 µM [2] | inhibition of growth at 100 µM [3] | inhibition of growth at 0.1 µM [4] | inhibition of growth at 0.01 µM [5] | inhibition of growth at 100 µM [6] | inhibition of growth at 10 µM [7] | inhibition of growth at 10 µM [8] | inhibition of growth at 1 µM [9] | inhibition of growth at 0.1 µM [10]
1 | COc1cc([C@@H]2c3cc4c(cc3[C@H](OC(=O)c3cncc(Br)c3)[C@H]3COC(=O)[C@H]23)OCO4)cc(OC)c1OC [4-O-PODOPHYLLOTOXINYL-5'-BROMONICOTINATE] | 77.3% | 82.7% | 97.7% | 80.9% | 80.6% | 91.1% | 84.7% | 87.4% | 85% | 82.8%
2 | COc1cc([C@@H]2c3cc4c(cc3[C@H](OC(=O)c3cccnc3)[C@H]3COC(=O)[C@H]23)OCO4)cc(OC)c1OC [4-O-PODOPHYLLOTOXINYL-NICOTINATE] | 81% | 82.8% | 87.5% | 82.2% | 83.4% | 87.5% | 84.9% | 84.8% | 84.1% | 83.8%
3 | COc1cc([C@@H]2c3cc4c(cc3[C@H](OC(=O)c3ccc(Cl)nc3)[C@H]3COC(=O)[C@H]23)OCO4)cc(OC)c1OC [4-O-PODOPHYLLOTOXINYL-6'-CHLORONICOTINATE] | 81.5% | 85.9% | 92.1% | 83% | 80.1% | 87.9% | 87% | 88.3% | 85% | 84.3%
4 | COc1cc([C@@H]2c3cc4c(cc3[C@H](OC(=O)c3ccncc3)[C@H]3COC(=O)[C@H]23)OCO4)cc(OC)c1OC [4-O-PODOPHYLLOTOXINYL-ISONICOTINATE] | 81.4% | 82.6% | 89% | 81.8% | 83.8% | 89.2% | 84.4% | 85.1% | 84.8% | 84.8%
5 | COc1cc([C@@H]2c3cc4c(cc3[C@@H](OC(=O)c3cncc(Br)c3)[C@H]3COC(=O)[C@H]23)OCO4)cc(OC)c1O [4-O-DEMETHYLEPIPODOPHYLLOTOXINYL-5'-BROMONICOTINATE] | 71% | 78.4% | 100% | 74.6% | 2% | 87.3% | 82% | 87.4% | 66.1% | 63.5%
6 | COc1cc([C@@H]2c3cc4c(cc3[C@@H](OC(=O)c3cccnc3)[C@H]3COC(=O)[C@H]23)OCO4)cc(OC)c1O [4-O-DEMETHYLEPIPODOPHYLLOTOXINYL-NICOTINATE] | 71.9% | 74% | 100% | 72.6% | 4.4% | 91.4% | 79.9% | 87.9% | 72.1% | 71.4%
7 | COc1cc([C@@H]2c3cc4c(cc3[C@H](OC(=O)c3cccnc3Cl)[C@H]3COC(=O)[C@H]23)OCO4)cc(OC)c1OC [4-O-PODOPHYLLOTOXINYL-2'-CHLORONICOTINATE] | 79.5% | 81.3% | 87.3% | 80.4% | 80.6% | 86.6% | 82.5% | 85.8% | 85% | 84.7%

Source: ChEMBL document CHEMBL3046757, “Design, synthesis, and biological evaluation of novel pyridine acid esters of podophyllotoxin and esters of 4-demethylepipodophyllotoxin” (2007)
